The source of these data is ChEMBL document CHEMBL1949665, “Pyrazolo[1,5-a]pyridines as p38 kinase inhibitors” (Org Lett, 2005).

A short description of this test: Inhibition of p38 kinase.

On to `CN(C)CCCNc1nccc(-c2c(-c3ccc(F)cc3)nn3cc(C(F)(F)F)ccc23)n1`, for which half-maximal inhibition (IC50) was put at 630 nM. Then `CN(C)c1cc(-c2c(-c3ccc(F)cc3)nn3ccccc23)ccn1`, with 1000 nM. Consider `Fc1ccc(-c2nn3ccccc3c2-c2ccnc(NCc3ccccc3)c2)cc1`, for which the 50% inhibitory concentration (IC50) – broadly, the concentration needed to halve the response being measured – stood at 160 nM. This IC50 lies about 6.2-fold lower than the previous one. `Fc1ccc(-c2nn3ccccc3c2-c2ccnc(Nc3ccccc3)c2)cc1` came in with an IC50 of 160 nM. In the case of `CCCCNc1cc(-c2c(-c3ccc(F)cc3)nn3cccc(F)c23)ccn1`, the IC50 is 160 nM. The value for `COc1cccc2c(-c3ccncc3)c(-c3ccc(F)cc3)nn12` was 100 nM. Turning to `Nc1cc(-c2c(-c3ccc(F)cc3)nn3cc(C(F)(F)F)ccc23)ccn1`, the IC50 was 100 nM. The value for `CC(C)Nc1cc(-c2c(-c3ccc(F)cc3)nn3cc(C(N)=O)ccc23)ccn1` was 80 nM; that for `CCCCNc1cc(-c2c(-c3ccc(F)cc3)nn3c(OC)cccc23)ccn1` was 60 nM. Then `N#Cc1ccc2c(-c3ccnc(NC4CC4)c3)c(-c3ccc(F)cc3)nn2c1`, with 50 nM; and `CN(C)CCCNc1nccc(-c2c(-c3ccc(C(F)(F)F)cc3)nn3cc(C(F)(F)F)ccc23)n1`, with 1250 nM.

`Fc1ccc(-c2nn3ccccc3c2-c2ccncn2)cc1` registered an IC50 of 630 nM. Against the preceding compound, the IC50 is about 2-fold lower. For the compound `Cc1cccc2c(-c3ccncn3)c(-c3ccc(F)cc3)nn12`, the IC50 came out at 500 nM. This IC50 and that of the compound before are within 1.5-fold of each other.

`CN1CCN(CCCNc2nccc(-c3c(-c4ccc(C(F)(F)F)cc4)nn4cc(C(F)(F)F)ccc34)n2)CC1` yielded an IC50 of 400 nM. Then `OCCCNc1nccc(-c2c(-c3cccc(C(F)(F)F)c3)nn3cc(C(F)(F)F)ccc23)n1`, with 200 nM; and `CSc1cccc2c(-c3ccncn3)c(-c3ccc(F)cc3)nn12`, with 160 nM. Then `CN1CCN(CCCNc2nccc(-c3c(-c4ccc(F)cc4)nn4cc(C(F)(F)F)ccc34)n2)CC1`, with 130 nM; and `Nc1nccc(-c2c(-c3ccc(F)cc3)nn3ccccc23)n1`, with 100 nM. The value for `CN(C)CCCNc1nccc(-c2c(-c3cccc(Cl)c3)nn3cc(C(F)(F)F)ccc23)n1` was 100 nM; that for `CN(C)C(=O)c1ccc2c(-c3ccnc(NC4CC4)n3)c(-c3cccc(C(F)(F)F)c3)nn2c1` was 60 nM; that for `CN(C)C(=O)c1ccc2c(-c3ccnc(NC4CC4)n3)c(-c3ccc(F)cc3)nn2c1` was 60 nM. For `OCCCNc1nccc(-c2c(-c3ccc(F)cc3)nn3cc(C(F)(F)F)ccc23)n1`, it took 60 nM to reach half-maximal inhibition (IC50).

The compound `OCCCNc1nccc(-c2c(-c3ccc(F)cc3)nn3cc(Cl)ccc23)n1` had an IC50 of 40 nM. This IC50 lies about 1.5-fold lower than the previous one. Then `CCCCNc1nccc(-c2c(-c3ccc(F)cc3)nn3c(OCCF)cccc23)n1`, with 40 nM; and `CN1CCN(CCCNc2nccc(-c3c(-c4ccc(F)cc4)nn4cc(C(N)=O)ccc34)n2)CC1`, with 40 nM. The value for `CC(C)Nc1nccc(-c2c(-c3ccc(F)cc3)nn3cc(C(F)(F)F)ccc23)n1` was 40 nM; that for `NC(=O)c1ccc2c(-c3ccnc(NC4CC4)n3)c(-c3ccc(F)cc3)nn2c1` was 20 nM; that for `N#Cc1ccc2c(-c3ccnc(NC4CC4)n3)c(-c3ccc(F)cc3)nn2c1` [GW561436X] was 30 nM. Then `Nc1nccc(-c2c(-c3ccc(F)cc3)nn3cc(C(F)(F)F)ccc23)n1` [GW568326X], with 200 nM; and `NC(=O)c1ccc2c(-c3ccnc(NCCCO)n3)c(-c3ccc(F)cc3)nn2c1` [GW581744X], with 10 nM.
